{
  "source": "patent US4868156A",
  "about": "“Pharmaceutical preparation containing a dipeptide with cell growth regulating effect” (Bio-Tech A/S, priority 1986, dated 1989)",
  "test_system": "mouse epidermal mitotic rate",
  "experiment": "change in mouse epidermal mitotic rate after intraperitoneal injection (Colcemid method)",
  "assay_type": "in vivo",
  "settings": "10^-13 moles of peptide injected per mouse, first three hours after injection, versus control animals from the same cage",
  "description": "In the following Table 1 the in vivo result (change in mouse epidermal mitotic rate) has been described as an example for one of the dipeptides. The epidermal mitotic rate was measured for the first three hours after intraperitoneal injection of the dipeptide. Mitotic rate was determined by means of \"Colcemid\". A reduced rate was determined as a percentage in comparison with control animals from the same cage.",
  "note": "Non-standard residues stand in square brackets, D forms with d. No end group written: not given here. pGlu = O=C1CC[C@@H](C(=O)O)N1",
  "data": [
    {"substance": "[pGlu]-Gly", "values": [
      {"measurement": "Decrease in mitotic rate", "value": 40, "unit": "%"}
    ]}
  ]
}
